Measurements: patent publication US11026991B2, “Compositions and methods of use thereof to promote muscle growth and function” (Worlds Greatest Ingredients, LP, priority 2018, dated 2021)
Read-outs that look alike come from different tables or passages of the source.

Details: in vivo; for Plasma Isoleucine Concentrations After Ingestion / Plasma Leucine Concentrations After Ingestion / Plasma Lysine Concentrations After Ingestion / Plasma Methionine Concentrations After Ingestion / Plasma Phenylalanine Concentrations After Ingestion / Plasma Threonine Concentrations After Ingestion / Plasma Tryptophan Concentrations After Ingestion / Plasma Valine Concentrations After Ingestion / Total Plasma BCAA Concentrations After Ingestion / Total Plasma EAA Concentrations After Ingestion / Plasma Leucine Delta Change Relative to Baseline Values / Plasma Leucine Percent Change Relative to Baseline Values / relative increase in plasma leucine from Pre / elevation in plasma leucine relative to baseline, times greater than the other condition: male, human
Method: The subject came into the laboratory fasted prior to the testing days. […] On Day 1, they were randomized to consume 1 of the 2 conditions. Following, consumption of the fluid mixture (8 oz. water), plasma amino acids were measured at 30, 60, 90, and 120 minutes. A 72-hour washout took place followed by the 2nd condition following the same procedures.
The dosage used in this study was either 2 grams of di-leucine (condition Ce) or 2 grams of leucine (condition C4).

With `CC(C)C[C@H](N)C(=O)O` [Condition C4, leucine] the “increase in plasma lysine, times greater than the other condition” value was 19 ×, the “increases in total EAA concentration relative to baseline (range)” value was 9.4% to 16.3% and the “plasma phenylalanine change relative to Pre values (range)” value was −16.0% to −3.5%. The “Plasma Isoleucine Concentrations After Ingestion” value was 45.75 nmol/L, the “Plasma Leucine Concentrations After Ingestion” value was 92.25 nmol/L and the “Plasma Lysine Concentrations After Ingestion” value was 121.19 nmol/L. The “Plasma Methionine Concentrations After Ingestion” value was 18.77 nmol/L, the “Plasma Phenylalanine Concentrations After Ingestion” value was 48.61 nmol/L and the “Plasma Threonine Concentrations After Ingestion” value was 87.38 nmol/L. For the same compound, the “Plasma Tryptophan Concentrations After Ingestion” value was 45.00 nmol/L, the “Plasma Valine Concentrations After Ingestion” value was 230.43 nmol/L and the “Total Plasma BCAA Concentrations After Ingestion” value was 368.43 nmol/L. For the same compound, the “Total Plasma EAA Concentrations After Ingestion” value was 689.38 nmol/L, the “Plasma Isoleucine Concentrations After Ingestion” value (30 min) was 34.44 nmol/L and the “Plasma Leucine Concentrations After Ingestion” value (30 min) was 198.33 nmol/L. For the same compound, the “Plasma Leucine Delta Change Relative to Baseline Values” (30 min) was 106.09 nmol/L, the “Plasma Leucine Percent Change Relative to Baseline Values” (30 min) was 115.0% and the “Plasma Lysine Concentrations After Ingestion” value (30 min) was 135.48 nmol/L. For the same compound, the “Plasma Methionine Concentrations After Ingestion” value (30 min) was 16.61 nmol/L, the “Plasma Phenylalanine Concentrations After Ingestion” value (30 min) was 42.44 nmol/L and the “Plasma Threonine Concentrations After Ingestion” value (30 min) was 76.42 nmol/L. For the same compound, the “Plasma Tryptophan Concentrations After Ingestion” value (30 min) was 40.12 nmol/L, the “Plasma Valine Concentrations After Ingestion” value (30 min) was 210.39 nmol/L and the “Total Plasma BCAA Concentrations After Ingestion” value (30 min) was 443.16 nmol/L. The “Total Plasma EAA Concentrations After Ingestion” value (30 min) was 754.23 nmol/L, the “relative increase in plasma leucine from Pre” value (30 min) was 106.09 nmol/mL and the “Plasma Isoleucine Concentrations After Ingestion” value (60 min) was 33.30 nmol/L. The “Plasma Leucine Concentrations After Ingestion” value (60 min) was 146.70 nmol/L, the “Plasma Leucine Delta Change Relative to Baseline Values” (60 min) was 54.45 nmol/L and the “Plasma Leucine Percent Change Relative to Baseline Values” (60 min) was 59.0%. For the same compound, the “Plasma Lysine Concentrations After Ingestion” value (60 min) was 128.45 nmol/L, the “Plasma Methionine Concentrations After Ingestion” value (60 min) was 15.94 nmol/L and the “Plasma Phenylalanine Concentrations After Ingestion” value (60 min) was 40.84 nmol/L. For the same compound, the “Plasma Threonine Concentrations After Ingestion” value (60 min) was 75.83 nmol/L, the “Plasma Tryptophan Concentrations After Ingestion” value (60 min) was 43.54 nmol/L and the “Plasma Valine Concentrations After Ingestion” value (60 min) was 200.61 nmol/L. The “Total Plasma BCAA Concentrations After Ingestion” value (60 min) was 380.61 nmol/L, the “Total Plasma EAA Concentrations After Ingestion” value (60 min) was 685.20 nmol/L and the “relative increase in plasma leucine from Pre” value (60 min) was 54.45 nmol/mL. The “Plasma Isoleucine Concentrations After Ingestion” value (90 min) was 40.37 nmol/L, the “Plasma Leucine Concentrations After Ingestion” value (90 min) was 181.67 nmol/L and the “Plasma Leucine Delta Change Relative to Baseline Values” (90 min) was 89.42 nmol/L. The “Plasma Leucine Percent Change Relative to Baseline Values” (90 min) was 96.9%, the “Plasma Lysine Concentrations After Ingestion” value (90 min) was 134.15 nmol/L and the “Plasma Methionine Concentrations After Ingestion” value (90 min) was 19.30 nmol/L. The “Plasma Phenylalanine Concentrations After Ingestion” value (90 min) was 46.94 nmol/L, the “Plasma Threonine Concentrations After Ingestion” value (90 min) was 91.05 nmol/L and the “Plasma Tryptophan Concentrations After Ingestion” value (90 min) was 46.58 nmol/L. For the same compound, the “Plasma Valine Concentrations After Ingestion” value (90 min) was 225.20 nmol/L, the “Total Plasma BCAA Concentrations After Ingestion” value (90 min) was 447.24 nmol/L and the “Total Plasma EAA Concentrations After Ingestion” value (90 min) was 785.26 nmol/L. The “elevation in plasma leucine relative to baseline, times greater than the other condition” value (90 min) was 2.6 ×, the “Plasma Isoleucine Concentrations After Ingestion” value (120 min) was 36.47 nmol/L and the “Plasma Leucine Concentrations After Ingestion” value (120 min) was 158.84 nmol/L. For the same compound, the “Plasma Leucine Delta Change Relative to Baseline Values” (120 min) was 66.59 nmol/L, the “Plasma Leucine Percent Change Relative to Baseline Values” (120 min) was 72.2% and the “Plasma Lysine Concentrations After Ingestion” value (120 min) was 171.18 nmol/L. The “Plasma Methionine Concentrations After Ingestion” value (120 min) was 19.19 nmol/L, the “Plasma Phenylalanine Concentrations After Ingestion” value (120 min) was 45.40 nmol/L and the “Plasma Threonine Concentrations After Ingestion” value (120 min) was 90.94 nmol/L. The “Plasma Tryptophan Concentrations After Ingestion” value (120 min) was 44.81 nmol/L, the “Plasma Valine Concentrations After Ingestion” value (120 min) was 234.78 nmol/L and the “Total Plasma BCAA Concentrations After Ingestion” value (120 min) was 430.08 nmol/L. For the same compound, the “Total Plasma EAA Concentrations After Ingestion” value (120 min) was 801.61 nmol/L and the “elevation in plasma leucine relative to baseline, times greater than the other condition” value (120 min) was 1.5 ×.
